Molecules are shown by their SMILES. Calls of active or inactive are those of the source. No rule for the calls is given here. Bounds are passed on as bounds.

The experiment deals with Sphingosine 1-phosphate receptor 1 (Homo sapiens) (UniProt P21453). The experiment in a line: human S1P1 agonists, dose response, counter-screen for S1PR3 antagonist project, cell-based, fluorescence, late-stage (AID 743426). The following applies: S1P1-expressing cells, agonist counterscreen. Background: Counterscreens check selectivity or assay interference.
Sphingosine 1-phosphate receptor 1 (Homo sapiens), sequence (P21453 whole entry, looked up): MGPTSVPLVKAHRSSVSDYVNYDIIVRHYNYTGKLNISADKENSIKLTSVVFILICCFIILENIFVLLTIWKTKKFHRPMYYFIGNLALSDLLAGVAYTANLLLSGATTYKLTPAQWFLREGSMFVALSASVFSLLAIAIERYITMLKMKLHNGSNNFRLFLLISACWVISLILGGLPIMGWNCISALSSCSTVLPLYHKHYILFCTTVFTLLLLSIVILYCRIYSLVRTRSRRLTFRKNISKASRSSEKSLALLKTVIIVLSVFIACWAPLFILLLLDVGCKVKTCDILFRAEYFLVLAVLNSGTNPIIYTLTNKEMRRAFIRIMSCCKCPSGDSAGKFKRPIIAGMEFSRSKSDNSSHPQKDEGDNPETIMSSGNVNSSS

Broadly, the EC50 is the concentration at which the effect is half-maximal. Consider `O=C(NC(Cc1ccccc1)c1nc(-c2ccccc2)no1)c1cccc(Cl)c1` (configuration not stated), for which the EC50 result is “inactive”.

In the case of `O=C(NC(c1ccccc1)c1nc(-c2ccccc2)no1)c1ccc(Cl)cc1` (configuration not stated), the EC50 was > 50 µM (inactive).

Take `O=C(c1cccc(Cl)c1)N(CCO)C(c1ccc(Cl)c(Cl)c1)c1nc(-c2ccccc2)no1` (configuration not stated): the EC50 result was “inactive”.

Consider `O=C(NC(c1ccc(Cl)c(Cl)c1)c1nc(-c2ccccc2)no1)c1ccc(Cl)cc1` (configuration not stated), for which the EC50 was > 50 µM (inactive).

In the case of `CCc1ccc(C(NC(=O)c2cccc(Cl)c2)c2nc(-c3ccccc3)no2)cc1` (configuration not stated), the EC50 was > 50 µM (inactive).

For `O=C(NC(c1ccc(Cl)cc1)c1nc(-c2ccccc2)no1)c1cccc(Br)c1` (configuration not stated), the EC50 was > 50 µM (inactive).

Turning to `O=C(NC(c1cccc(Cl)c1)c1nc(-c2ccccc2)no1)c1cc(Cl)cc(Cl)c1` (configuration not stated), the EC50 is > 50 µM (inactive).

On to `O=C(NC(c1ccccc1)c1nc(-c2ccccc2)no1)c1cccc(Br)c1` (configuration not stated), for which the EC50 entry was “inactive”.

In the case of `N#Cc1ccc(C(=O)NC(c2ccc(Cl)c(Cl)c2)c2nc(-c3ccccc3)no2)cc1` (configuration not stated), the EC50 was > 50 µM (inactive).

As to `O=C(NC(c1ccc(Cl)c(Cl)c1)c1nc(-c2ccccc2)no1)c1ccc(Cl)c(Cl)c1` (configuration not stated), the EC50 is > 50 µM (inactive).

Regarding `Cc1ccc(C(=O)NC(c2ccccc2)c2nc(-c3ccccc3)no2)cc1` (configuration not stated), the EC50 was > 50 µM (inactive).

With `O=C(NC(c1ccc(Cl)c(Cl)c1)c1nc(-c2ccccc2)no1)c1cccc(Cl)c1` (configuration not stated), the EC50 was > 50 µM (inactive).

`O=C(NC(c1ccc(Cl)cc1)c1nc(-c2ccccn2)no1)c1cccc(Cl)c1` (configuration not stated): the EC50 was > 50 µM (inactive).

Consider `O=C(NC(c1ccc(Br)cc1)c1nc(-c2ccccc2)no1)c1ccc(Cl)c(Cl)c1` (configuration not stated), for which the EC50 is > 50 µM (inactive).

On to `COc1ccc(C(=O)NC(c2ccccc2)c2nc(-c3ccccc3)no2)cc1` (configuration not stated), for which the EC50 was > 50 µM (inactive).

For the molecule `O=C(NC(c1cccc(Cl)c1)c1nc(-c2ccccc2)no1)c1cccc(Cl)c1` (configuration not stated), the EC50 was > 50 µM (inactive).

`O=C(NC(c1ccc(Cl)c(Cl)c1)c1nc(-c2ccccc2)no1)c1ccccc1` (configuration not stated): the EC50 was > 50 µM (inactive).

For `Cc1ccc(C(NC(=O)c2cccc(Cl)c2)c2nc(-c3ccccc3)no2)cc1` (configuration not stated), the EC50 was > 50 µM (inactive).

Turning to `O=C(NC(c1nc(-c2ccccc2)no1)C1CCOCC1)c1ccc(Cl)c(Cl)c1` (configuration not stated), the EC50 was > 50 µM (inactive).

With `O=C(NC(c1ccc(Cl)cc1)c1nc(-c2ccccc2)no1)c1cccc(Cl)c1` (configuration not stated), the EC50 is > 50 µM (inactive).

`O=C(NC(c1ccccc1)c1nc(-c2ccccc2)no1)c1cccc(Cl)c1` (configuration not stated): the EC50 is > 50 µM (inactive).

As for `O=C(NC(c1ccc(Cl)cc1)c1nc(-c2ccccc2)no1)c1ccc(Cl)c(Cl)c1` (configuration not stated), the EC50 is > 50 µM (inactive).

As for `O=C(NC(c1cccc(Cl)c1)c1nc(-c2ccccc2)no1)c1ccc(Cl)c(Cl)c1` (configuration not stated), the EC50 is > 50 µM (inactive).

In the case of `O=C(NC(c1ccc(Cl)cc1)c1nc(-c2cccc(Cl)c2)no1)c1cccc(Cl)c1` (configuration not stated), the EC50 is > 50 µM (inactive).

For the molecule `O=C(NC(c1ccc(Cl)cc1)c1nc(-c2ccccc2)no1)c1ccc(Cl)c(Br)c1` (configuration not stated), the EC50 was > 50 µM (inactive).

Regarding `O=C(NC(c1nc(-c2ccccc2)no1)C1CCCCC1)c1ccc(Cl)c(Cl)c1` (configuration not stated), the EC50 was > 50 µM (inactive).

Regarding `O=C(NC(c1ccccc1)c1nc(-c2ccccc2)no1)c1cccc(Cl)n1` (configuration not stated), the EC50 entry was “inactive”.

Source of the values: PubChem BioAssay AID743426 (The Scripps Research Institute Molecular Screening Center, 2014).
